# Reference: ChEMBL document CHEMBL1201862, “PubChem BioAssay data set” (2004)
# The source made the active and inactive calls.
# Legend:
# [1] = biological target: Cytochrome P450 3A4 (Homo sapiens, UniProt P08684);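 further: CYP3A4 tested as one member of a cytochrome P450 panel screen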
# [2] = cells; assay type: functional, cell-based
# [3] = cells; assay type: functional, cell-based; remark: listed apart in the source
# [4] = A549 cell cytotoxicity, dose response, cytotoxicity control, plate reader, cherry-pick, antagonist series (AID 743412); assay type: functional, cell-based
# [5] = cytotoxicity in HEK-293T cells, dose response, cytotoxicity control for TCR NF-kB inhibitor project, luminescence, T-cell screen hits (AID 489026); assay type: functional, cell-based;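 further: cells exposed to compound about 14 hours before the viability readout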
# [6] = biological target: Glyceraldehyde-3-phosphate dehydrogenase (Homo sapiens, UniProt P04406)
# [7] = tested on: Escherichia coli; assay: microbe, parasite or virus in culture
# [8] = biological target: T1, Streptokinase A (Streptococcus pyogenes serotype M1, UniProt P10520); assay: S. pyogenes streptokinase expression inhibitors, potency, dose response, plasminogen activation absorbance, OD405 (AID 1914); assay type: functional, Streptococcus pyogenes M1 GAS;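 further: secreted streptokinase activity via plasminogen activation per viability signal from cell pellet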
# T1 sequence (P10520 whole entry): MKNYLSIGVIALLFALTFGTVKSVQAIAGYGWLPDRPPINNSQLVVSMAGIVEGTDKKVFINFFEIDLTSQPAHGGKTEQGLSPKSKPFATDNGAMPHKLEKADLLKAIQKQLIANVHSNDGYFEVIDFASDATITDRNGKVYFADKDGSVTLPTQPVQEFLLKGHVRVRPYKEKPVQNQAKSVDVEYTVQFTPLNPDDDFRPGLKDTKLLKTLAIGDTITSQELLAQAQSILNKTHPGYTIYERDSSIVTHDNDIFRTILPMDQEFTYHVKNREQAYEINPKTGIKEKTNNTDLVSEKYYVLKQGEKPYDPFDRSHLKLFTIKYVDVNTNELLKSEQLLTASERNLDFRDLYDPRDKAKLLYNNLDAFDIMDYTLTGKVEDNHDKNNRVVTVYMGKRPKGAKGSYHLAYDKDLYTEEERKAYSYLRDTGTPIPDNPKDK
# [9] = biological target: T2, Short transient receptor potential channel 4 (Mus musculus, UniProt Q9QUQ5); assay: mouse TRPC4 channel inhibitors, dose response, cell-based, HEK293 TRPC4/mu-opioid, Fluo-4 calcium (AID 434942); assay type: functional;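 further: potency of inhibitors blocking the TRPC4 calcium response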
# T2 sequence (Q9QUQ5 whole entry): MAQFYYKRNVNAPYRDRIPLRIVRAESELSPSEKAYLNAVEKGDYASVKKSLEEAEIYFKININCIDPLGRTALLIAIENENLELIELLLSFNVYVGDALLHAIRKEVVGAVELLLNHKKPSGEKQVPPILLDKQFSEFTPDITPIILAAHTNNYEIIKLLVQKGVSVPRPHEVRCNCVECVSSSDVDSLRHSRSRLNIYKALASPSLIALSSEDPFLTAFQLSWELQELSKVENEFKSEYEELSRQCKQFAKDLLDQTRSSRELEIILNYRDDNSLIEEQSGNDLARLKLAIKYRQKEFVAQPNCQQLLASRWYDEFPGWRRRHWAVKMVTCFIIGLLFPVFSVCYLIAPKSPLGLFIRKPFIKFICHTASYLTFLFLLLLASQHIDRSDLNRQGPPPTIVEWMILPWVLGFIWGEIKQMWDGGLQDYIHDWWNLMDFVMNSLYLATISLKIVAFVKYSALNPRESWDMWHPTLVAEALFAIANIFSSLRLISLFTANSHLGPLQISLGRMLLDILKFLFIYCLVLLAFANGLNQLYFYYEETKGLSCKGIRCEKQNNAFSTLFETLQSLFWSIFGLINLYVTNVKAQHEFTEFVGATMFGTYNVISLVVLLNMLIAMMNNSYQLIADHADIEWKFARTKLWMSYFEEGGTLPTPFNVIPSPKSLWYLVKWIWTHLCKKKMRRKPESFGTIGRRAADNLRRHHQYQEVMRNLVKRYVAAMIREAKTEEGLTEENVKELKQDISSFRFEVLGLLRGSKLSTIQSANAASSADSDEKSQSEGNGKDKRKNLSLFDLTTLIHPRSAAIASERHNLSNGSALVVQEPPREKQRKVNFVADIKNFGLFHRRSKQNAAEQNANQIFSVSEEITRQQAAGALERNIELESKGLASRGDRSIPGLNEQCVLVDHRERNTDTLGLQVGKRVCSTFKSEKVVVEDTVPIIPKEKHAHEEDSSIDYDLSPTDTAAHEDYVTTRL
# [10] = biological target: T3, Histone-lysine N-methyltransferase NSD2 (Homo sapiens, UniProt O96028); assay type: biochemical
# T3 sequence (O96028 whole entry): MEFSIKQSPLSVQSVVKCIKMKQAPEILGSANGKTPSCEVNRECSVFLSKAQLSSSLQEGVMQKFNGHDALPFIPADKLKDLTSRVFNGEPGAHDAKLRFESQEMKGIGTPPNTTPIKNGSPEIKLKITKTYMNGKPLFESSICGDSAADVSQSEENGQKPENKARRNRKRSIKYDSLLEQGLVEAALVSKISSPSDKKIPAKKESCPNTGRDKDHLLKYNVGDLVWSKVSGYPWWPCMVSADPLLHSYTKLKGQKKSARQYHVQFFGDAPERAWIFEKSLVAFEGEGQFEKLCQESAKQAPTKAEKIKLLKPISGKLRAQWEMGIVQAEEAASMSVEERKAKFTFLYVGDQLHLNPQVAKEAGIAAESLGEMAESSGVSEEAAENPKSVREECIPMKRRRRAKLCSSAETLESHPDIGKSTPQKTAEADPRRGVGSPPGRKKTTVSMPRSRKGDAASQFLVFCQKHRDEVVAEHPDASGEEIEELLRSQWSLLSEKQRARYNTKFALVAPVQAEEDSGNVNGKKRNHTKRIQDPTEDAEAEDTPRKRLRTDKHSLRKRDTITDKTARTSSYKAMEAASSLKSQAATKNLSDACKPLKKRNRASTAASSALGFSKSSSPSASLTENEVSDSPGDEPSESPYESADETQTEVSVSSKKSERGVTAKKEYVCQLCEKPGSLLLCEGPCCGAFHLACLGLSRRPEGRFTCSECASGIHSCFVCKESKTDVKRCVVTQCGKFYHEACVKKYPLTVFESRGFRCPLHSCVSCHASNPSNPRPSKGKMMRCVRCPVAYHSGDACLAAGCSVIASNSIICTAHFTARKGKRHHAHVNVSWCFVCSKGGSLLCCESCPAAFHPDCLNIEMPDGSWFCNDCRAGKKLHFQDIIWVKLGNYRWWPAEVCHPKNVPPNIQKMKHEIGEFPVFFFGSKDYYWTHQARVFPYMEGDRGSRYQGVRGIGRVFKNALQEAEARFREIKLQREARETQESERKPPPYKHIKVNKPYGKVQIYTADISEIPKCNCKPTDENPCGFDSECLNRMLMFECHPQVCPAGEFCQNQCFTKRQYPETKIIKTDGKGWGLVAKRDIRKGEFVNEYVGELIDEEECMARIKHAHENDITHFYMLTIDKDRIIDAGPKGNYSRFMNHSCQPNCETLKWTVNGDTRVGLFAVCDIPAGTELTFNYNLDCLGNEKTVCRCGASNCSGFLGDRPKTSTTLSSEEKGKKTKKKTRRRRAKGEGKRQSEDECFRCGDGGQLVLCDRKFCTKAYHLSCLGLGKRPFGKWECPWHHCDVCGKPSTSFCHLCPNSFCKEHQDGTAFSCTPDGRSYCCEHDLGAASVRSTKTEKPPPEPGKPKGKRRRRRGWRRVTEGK
# [11] = biological target: T4, Leucine aminopeptidase (Plasmodium falciparum 3D7, UniProt Q8IL11); assay: P. falciparum M17LAP inhibitors, primary screen, biochemical, fluorogenic H-Leu-NHMec substrate, 1536-well (AID 1619); assay type: functional
# T4 sequence (Q8IL11 whole entry): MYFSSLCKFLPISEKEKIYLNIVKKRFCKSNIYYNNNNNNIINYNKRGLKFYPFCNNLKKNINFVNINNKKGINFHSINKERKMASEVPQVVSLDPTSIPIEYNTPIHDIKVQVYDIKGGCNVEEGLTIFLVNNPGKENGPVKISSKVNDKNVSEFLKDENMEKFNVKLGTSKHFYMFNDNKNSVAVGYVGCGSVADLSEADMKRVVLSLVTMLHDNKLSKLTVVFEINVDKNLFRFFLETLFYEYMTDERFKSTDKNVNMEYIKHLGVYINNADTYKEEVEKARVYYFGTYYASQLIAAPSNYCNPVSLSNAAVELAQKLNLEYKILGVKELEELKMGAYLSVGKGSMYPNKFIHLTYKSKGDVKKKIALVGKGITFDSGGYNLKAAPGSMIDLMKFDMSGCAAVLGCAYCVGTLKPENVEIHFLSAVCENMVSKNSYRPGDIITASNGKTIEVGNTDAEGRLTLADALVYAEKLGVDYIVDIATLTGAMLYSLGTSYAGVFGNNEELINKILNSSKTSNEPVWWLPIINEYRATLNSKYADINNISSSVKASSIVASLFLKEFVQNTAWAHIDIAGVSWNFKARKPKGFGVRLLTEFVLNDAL
# [12] = biological target: T5, Alkaline phosphatase, tissue-nonspecific isozyme (Homo sapiens, UniProt P05186); assay: human TNAP enzyme inhibitors, SAR follow-up, biochemical, luminescent, dose response (AID 1056)
# T5 sequence (P05186 whole entry): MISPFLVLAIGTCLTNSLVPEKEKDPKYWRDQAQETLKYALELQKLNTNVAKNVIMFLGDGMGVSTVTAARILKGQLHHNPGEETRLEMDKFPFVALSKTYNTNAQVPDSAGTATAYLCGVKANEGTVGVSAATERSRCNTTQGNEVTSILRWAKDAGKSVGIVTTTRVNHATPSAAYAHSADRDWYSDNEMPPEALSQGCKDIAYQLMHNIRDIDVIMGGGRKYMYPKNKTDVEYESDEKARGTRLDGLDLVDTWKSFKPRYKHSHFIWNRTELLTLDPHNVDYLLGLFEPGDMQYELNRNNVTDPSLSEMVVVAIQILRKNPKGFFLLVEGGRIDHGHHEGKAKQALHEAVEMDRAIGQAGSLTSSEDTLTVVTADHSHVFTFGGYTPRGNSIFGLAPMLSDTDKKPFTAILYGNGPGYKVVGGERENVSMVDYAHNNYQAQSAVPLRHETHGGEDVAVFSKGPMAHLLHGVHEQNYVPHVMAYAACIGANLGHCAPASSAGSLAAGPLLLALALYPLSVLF
# [13] = biological target: T6, Cytochrome P450 1A2 (Homo sapiens, UniProt P05177);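 further: PubChem cytochrome P450 panel assay, CYP1A2 panel member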
# T6 sequence (P05177 whole entry): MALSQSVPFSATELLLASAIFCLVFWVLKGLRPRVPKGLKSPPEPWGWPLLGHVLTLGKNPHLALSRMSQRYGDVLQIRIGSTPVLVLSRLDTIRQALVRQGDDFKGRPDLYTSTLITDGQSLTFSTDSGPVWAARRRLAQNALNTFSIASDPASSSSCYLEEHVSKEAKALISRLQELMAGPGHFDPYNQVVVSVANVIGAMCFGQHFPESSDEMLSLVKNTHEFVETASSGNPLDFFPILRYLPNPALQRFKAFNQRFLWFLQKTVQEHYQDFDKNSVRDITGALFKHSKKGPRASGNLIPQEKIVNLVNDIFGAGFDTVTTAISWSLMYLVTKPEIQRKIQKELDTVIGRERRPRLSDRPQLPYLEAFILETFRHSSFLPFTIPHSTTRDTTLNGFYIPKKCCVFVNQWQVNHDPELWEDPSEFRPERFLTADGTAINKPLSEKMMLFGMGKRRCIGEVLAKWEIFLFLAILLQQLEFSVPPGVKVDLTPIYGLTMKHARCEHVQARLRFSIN
# [14] = biological target: Cytochrome P450 2C19 (Homo sapiens, UniProt P33261); assay: Cytochrome panel assay with activity outcomes. Panel member name: p450-cyp2c19 Compounds with AC50 equal or less than 10 uM are considered active; assay type: functional; conditions: read-out: AC50
# [15] = biological target: Cytochrome P450 2C9 (Homo sapiens, UniProt P11712)
# [16] = cytotoxicity toward NIH3T3 fibroblasts, dose response, counter-screen, cell-based, ATP luminescence, mouse fibroblasts (AID 2010); assay type: functional;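 further: cells exposed to compound for about 90 hours before reading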
# [17] = inhibitors of intracellular T. cruzi replication, confirmation, NIH3T3 host cells, beta-gal luminescence (AID 2044); assay type: functional, cell-based;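 further: intracellular parasites grown in NIH/3T3 mouse fibroblasts as host cells; luminescent beta-galactosidase reporter signal from transgenic T. cruzi replicating inside host cells; inhibitors lower the luminescence signal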
# Cytochrome P450 3A4, sequence (P08684 whole entry): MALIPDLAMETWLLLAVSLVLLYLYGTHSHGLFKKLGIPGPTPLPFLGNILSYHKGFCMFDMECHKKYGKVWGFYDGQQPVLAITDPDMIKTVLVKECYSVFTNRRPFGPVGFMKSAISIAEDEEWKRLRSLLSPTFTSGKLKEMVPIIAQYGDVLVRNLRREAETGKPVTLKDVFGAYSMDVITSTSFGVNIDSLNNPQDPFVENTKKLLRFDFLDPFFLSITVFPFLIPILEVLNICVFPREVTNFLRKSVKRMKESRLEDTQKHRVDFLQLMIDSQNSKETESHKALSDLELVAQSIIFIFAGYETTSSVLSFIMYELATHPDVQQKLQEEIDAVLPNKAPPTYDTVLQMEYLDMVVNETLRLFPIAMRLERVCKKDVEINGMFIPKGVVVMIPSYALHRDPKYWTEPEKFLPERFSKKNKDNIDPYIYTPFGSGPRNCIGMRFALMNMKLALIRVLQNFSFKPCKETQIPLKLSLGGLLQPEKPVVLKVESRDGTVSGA
# Glyceraldehyde-3-phosphate dehydrogenase, sequence (P04406 whole entry): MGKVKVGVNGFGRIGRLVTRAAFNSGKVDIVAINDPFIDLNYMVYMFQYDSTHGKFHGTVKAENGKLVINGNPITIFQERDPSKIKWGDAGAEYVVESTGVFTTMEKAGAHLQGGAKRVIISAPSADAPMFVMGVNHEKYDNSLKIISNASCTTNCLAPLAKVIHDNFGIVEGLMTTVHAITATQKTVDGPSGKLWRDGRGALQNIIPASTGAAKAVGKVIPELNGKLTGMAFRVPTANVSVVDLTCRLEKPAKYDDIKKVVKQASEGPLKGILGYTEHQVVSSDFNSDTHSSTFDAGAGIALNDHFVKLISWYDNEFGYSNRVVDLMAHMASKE
# Cytochrome P450 2C19, sequence (P33261 whole entry): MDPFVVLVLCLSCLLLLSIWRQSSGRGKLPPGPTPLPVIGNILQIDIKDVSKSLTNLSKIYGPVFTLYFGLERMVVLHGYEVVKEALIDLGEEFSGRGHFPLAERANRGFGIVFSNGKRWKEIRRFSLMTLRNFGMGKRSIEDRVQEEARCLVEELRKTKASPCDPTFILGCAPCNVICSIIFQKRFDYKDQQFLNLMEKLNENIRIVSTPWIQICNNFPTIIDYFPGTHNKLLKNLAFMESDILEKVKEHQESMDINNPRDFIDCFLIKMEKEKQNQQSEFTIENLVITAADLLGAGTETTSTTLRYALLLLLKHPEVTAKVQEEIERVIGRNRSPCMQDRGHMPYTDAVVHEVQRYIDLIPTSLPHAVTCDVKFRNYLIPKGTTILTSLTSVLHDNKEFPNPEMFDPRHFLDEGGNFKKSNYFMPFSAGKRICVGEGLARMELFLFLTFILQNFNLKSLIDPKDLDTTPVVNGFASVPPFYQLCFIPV
# Cytochrome P450 2C9, sequence (P11712 whole entry): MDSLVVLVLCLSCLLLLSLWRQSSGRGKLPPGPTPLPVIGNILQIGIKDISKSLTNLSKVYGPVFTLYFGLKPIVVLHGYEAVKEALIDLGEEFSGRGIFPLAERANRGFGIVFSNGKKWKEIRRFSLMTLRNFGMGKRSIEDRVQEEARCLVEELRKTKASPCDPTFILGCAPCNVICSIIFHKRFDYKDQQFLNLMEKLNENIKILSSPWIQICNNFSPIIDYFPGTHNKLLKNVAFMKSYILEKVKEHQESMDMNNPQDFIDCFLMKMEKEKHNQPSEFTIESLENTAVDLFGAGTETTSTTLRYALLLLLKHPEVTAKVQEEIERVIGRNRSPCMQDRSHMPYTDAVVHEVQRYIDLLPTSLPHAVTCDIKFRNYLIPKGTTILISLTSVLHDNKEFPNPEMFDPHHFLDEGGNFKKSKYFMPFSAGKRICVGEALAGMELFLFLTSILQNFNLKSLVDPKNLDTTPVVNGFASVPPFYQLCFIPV
smiles,measurement,setting,value
COc1ccc(NC(=O)N2CCC3(CC2)CCN(C(=O)c2cccn2C)CC3)cc1,AC50,[1],inconclusive
COc1ccc(Cl)c(OC)c1C(=O)NC(=O)Nc1c(F)cc(F)cc1F,EC50,[2],> 350 µM (not active)
same,EC50,[3],> 350 µM (not active)
C[C@@H]1CN([C@@H](C)CO)S(=O)(=O)c2ccc(C3=CCCC3)cc2O[C@H]1CN(C)C(=O)c1ccccc1,AC50,[4],38.9 µM (active)
CC(C)Nc1ccc(C(CC(N)=O)NC(=O)c2ccc(Br)cc2)cc1[N+](=O)[O-] (stereo not drawn),IC50,[5],> 80 µM (inactive)
COc1ccc(N2CCN(C(=O)C3COc4ccccc4O3)CC2)cc1 (stereo not drawn),EC50,[2],> 350 µM (not active)
same,EC50,[3],> 350 µM (not active)
COC(=O)C1Nc2cc(C(F)(F)F)ccc2S(=O)(=O)N1 (stereo not drawn),IC50,[6],> 100 µM (not active)
Cc1cc(C)n(CCCNC(=O)COc2ccc([N+](=O)[O-])cc2)n1,AC50,[7],89.1 µM (active)
CN(C(=O)CSc1nc(-c2ccc(C(C)(C)C)cc2)c(C#N)c(=O)[nH]1)C1CCCCC1,EC50,[8],> 150 µM (not active)
same,EC50,[9],9.44 µM (active)
same,AC50,[10],12.6 µM (active)
O=C(CCNC(=O)Cn1ccc2ccccc2c1=O)NCCCN1CCN(c2ccc(F)cc2)CC1,AC50,[1],inconclusive
Cc1cc(C(=O)OCC(=O)N2C(C)CCCC2C)c(C)o1 (stereo not drawn),IC50,[11],14.3 µM (active)
CCc1ccc(-c2cc(C(=O)O)[nH]n2)cc1,IC50,[6],> 100 µM (not active)
same,IC50,[12],17.6 µM (active)
CC(C)N(C(C)C)S(=O)(=O)c1ccc(N2CCc3ccccc3C2)nc1,EC50,[2],> 350 µM (not active)
same,EC50,[3],> 350 µM (not active)
O=C(Oc1ccccc1)N1CCC2(CC1)CN(c1ccccc1)C2,AC50,[1],inconclusive
same,AC50,[13],15.8 µM (inconclusive)
same,AC50,[14],15.8 µM (inconclusive)
C[C@H]1CCCC=CC2C[C@H](OC(=O)CN(C)C)C[C@@H]2[C@@H](O)/C=C\C(=O)O1 (stereo partly drawn),AC50,[15],inconclusive
same,AC50,[1],inconclusive
CC1=C(C)CC(C(=O)Nc2nc(-c3ccc(C)cc3C)c(C)s2)C(C(=O)O)C1 (stereo not drawn),IC50,[11],3.71 µM (active)
CN1/C(=C\C(=O)C[n+]2ccc3ccccc3c2)C(C)(C)c2ccccc21,EC50,[16],> 60 µM (not active)
same,EC50,[9],5.31 µM (active)
same,IC50,[5],> 80 µM (inactive)
same,EC50,[17],0.505 µM (active)
